Data as given in publication PMC4890880 (ACS infectious diseases, 2016).
pIC50: −log10 of the molar value.

tested on: HepG2-A16-CD81EGFP cells; test: cells; conditions: Homo sapiens, HepG2, read-out: HepG2 Tox% @ 50 uM rep1

Row | SMILES | cytotoxicity at 50 µM [%]
1 | Cc1ccc(NC(=O)Nc2cccc(Cl)c2)cc1F [MMV000911] | 85
2 | CC(C)c1ccc(CNCC(O)c2ccccc2)cc1 (centres unmarked) [MMV001049] | 96
3 | CC1CC(C)CN(C(=O)c2ccc(Cl)cc2Cl)C1 (centres unmarked) [MMV001344] | 74
4 | CCN(CC)CCNc1ccnc2cc(Cl)ccc12 [MMV006087] | 53
5 | c1ccc(CNc2nc(Nc3ccccc3)nc3ccccc23)cc1 [MMV006169] | 101
6 | CN1CCN(c2ccc(Nc3c4ccccc4nc4ccccc34)cc2)CC1 [MMV006172] | 97
7 | Cc1cc(NCCN2CCCCC2)c2ccc3ccccc3c2n1 [MMV006203] | 93
8 | CCN(CC)CCNc1ccnc2cc3ccccc3cc12 [MMV006303] | 99
9 | Cc1cc(Nc2cccc(F)c2)nc(NCc2ccccc2)n1 [MMV006319] | 99
10 | COc1cc(OC)c(N(C)C(=O)c2cc3c(s2)-c2ccccc2S(=O)(=O)C3)cc1Cl [MMV006427] | 53
11 | Cc1cc(NC(=O)C2c3ccccc3C(=O)N(CC(C)C)C2c2cccs2)no1 (centres unmarked) [MMV006429] | 15
12 | c1ccc2c(NCCc3c[nH]c4ccccc34)c3ccccc3nc2c1 [MMV006513] | 97
13 | CCN(CC)CCNc1ncnc2c1[nH]c1ccc(Br)cc12 [MMV006545] | 99
14 | Cc1cc(C)c2c(c1)OCN(Cc1ccccc1Cl)C2 [MMV006558] | 100
15 | Clc1ccc2[nH]c3c(NCCCN4CCOCC4)ncnc3c2c1 [MMV006587] | 95
16 | CCOC(=O)C1=CN(C)C=C(C(=O)OCC)C1c1cc(Br)c(OCC)c(OC)c1 [MMV006656] | 50
17 | Cc1cc(=O)oc2c1ccc1oc(C(=O)c3ccccc3)c(C)c12 [MMV006753] | 37
18 | CC(C)CCNCC(O)Cn1c2ccccc2c2ccccc21 (centres unmarked) [MMV006787] | 98
19 | c1ccc2cc3c(Nc4ccc(N5CCOCC5)cc4)ccnc3cc2c1 [MMV006861] | 78
20 | Cc1ccc2c(C)nc(Nc3nc(C)cc(-c4ccccc4)n3)nc2c1 [MMV007041] | 37
21 | CCOc1ccc(CN2CCN(CC(O)COc3ccc(OCC(O)CN4CCN(Cc5ccc(OCC)cc5)CC4)cc3)CC2)cc1 (centres unmarked) [MMV007092] | 98

same assay, conditions: Homo sapiens, HepG2, read-out: HepG2 Tox% @ 50 uM rep2

Row | SMILES | cytotoxicity at 50 µM [%]
22 | Cc1ccc(NC(=O)Nc2cccc(Cl)c2)cc1F [MMV000911] | 89
23 | CC(C)c1ccc(CNCC(O)c2ccccc2)cc1 (centres unmarked) [MMV001049] | 97
24 | CC1CC(C)CN(C(=O)c2ccc(Cl)cc2Cl)C1 (centres unmarked) [MMV001344] | 88
25 | CCN(CC)CCNc1ccnc2cc(Cl)ccc12 [MMV006087] | 87
26 | CN1CCN(c2ccc(Nc3c4ccccc4nc4ccccc34)cc2)CC1 [MMV006172] | 99
27 | Cc1cc(NCCN2CCCCC2)c2ccc3ccccc3c2n1 [MMV006203] | 95
28 | Cc1cc(Nc2cccc(F)c2)nc(NCc2ccccc2)n1 [MMV006319] | 102
29 | COc1cc(OC)c(N(C)C(=O)c2cc3c(s2)-c2ccccc2S(=O)(=O)C3)cc1Cl [MMV006427] | 52
30 | Cc1cc(NC(=O)C2c3ccccc3C(=O)N(CC(C)C)C2c2cccs2)no1 (centres unmarked) [MMV006429] | 18
31 | CCN(CC)CCNc1ncnc2c1[nH]c1ccc(Br)cc12 [MMV006545] | 101
32 | Cc1cc(C)c2c(c1)OCN(Cc1ccccc1Cl)C2 [MMV006558] | 100
33 | Clc1ccc2[nH]c3c(NCCCN4CCOCC4)ncnc3c2c1 [MMV006587] | 98
34 | c1ccc2cc3c(Nc4ccc(N5CCOCC5)cc4)ccnc3cc2c1 [MMV006861] | 99

same assay, conditions: Homo sapiens, HepG2, read-out: Tox IC50

Row | SMILES | pIC50
35 | CN1CCN(c2ccc(Nc3c4ccccc4nc4ccccc34)cc2)CC1 [MMV006172] | 5.29
36 | CCN(CC)CCNc1ccnc2cc3ccccc3cc12 [MMV006303] | 4.37
37 | COc1cc(OC)c(N(C)C(=O)c2cc3c(s2)-c2ccccc2S(=O)(=O)C3)cc1Cl [MMV006427] | < 4.30
38 | Cc1cc(NC(=O)C2c3ccccc3C(=O)N(CC(C)C)C2c2cccs2)no1 (centres unmarked) [MMV006429] | < 4.30
39 | CCOC(=O)C1=CN(C)C=C(C(=O)OCC)C1c1cc(Br)c(OCC)c(OC)c1 [MMV006656] | < 4.30
40 | CC(C)CCNCC(O)Cn1c2ccccc2c2ccccc21 (centres unmarked) [MMV006787] | 4.52
41 | CCOc1ccc(CN2CCN(CC(O)COc3ccc(OCC(O)CN4CCN(Cc5ccc(OCC)cc5)CC4)cc3)CC2)cc1 (centres unmarked) [MMV007092] | 4.38

same assay, conditions: Homo sapiens, HepG2, read-out: Tox max inhibition (%) @ 50 uM

Row | SMILES | inhibition at 50 µM [%]
42 | CN1CCN(c2ccc(Nc3c4ccccc4nc4ccccc34)cc2)CC1 [MMV006172] | 94
43 | CCN(CC)CCNc1ccnc2cc3ccccc3cc12 [MMV006303] | 92
44 | COc1cc(OC)c(N(C)C(=O)c2cc3c(s2)-c2ccccc2S(=O)(=O)C3)cc1Cl [MMV006427] | 39
45 | Cc1cc(NC(=O)C2c3ccccc3C(=O)N(CC(C)C)C2c2cccs2)no1 (centres unmarked) [MMV006429] | 18
46 | CCOC(=O)C1=CN(C)C=C(C(=O)OCC)C1c1cc(Br)c(OCC)c(OC)c1 [MMV006656] | 31
47 | CC(C)CCNCC(O)Cn1c2ccccc2c2ccccc21 (centres unmarked) [MMV006787] | 97
48 | CCOc1ccc(CN2CCN(CC(O)COc3ccc(OCC(O)CN4CCN(Cc5ccc(OCC)cc5)CC4)cc3)CC2)cc1 (centres unmarked) [MMV007092] | 65

tested on: Plasmodium berghei (Pb-Luc) exoerythrocytic-stage parasites; test: microbe, parasite or virus in culture; conditions: read-out: Inhibition% @ 50 uM rep1

Row | SMILES | inhibition at 50 µM [%]
49 | Cc1ccc(NC(=O)Nc2cccc(Cl)c2)cc1F [MMV000911] | 104
50 | CC(C)c1ccc(CNCC(O)c2ccccc2)cc1 (centres unmarked) [MMV001049] | 100
51 | CC1CC(C)CN(C(=O)c2ccc(Cl)cc2Cl)C1 (centres unmarked) [MMV001344] | 98
52 | CCN(CC)CCNc1ccnc2cc(Cl)ccc12 [MMV006087] | 101
53 | c1ccc(CNc2nc(Nc3ccccc3)nc3ccccc23)cc1 [MMV006169] | 103
54 | CN1CCN(c2ccc(Nc3c4ccccc4nc4ccccc34)cc2)CC1 [MMV006172] | 104
55 | Cc1cc(NCCN2CCCCC2)c2ccc3ccccc3c2n1 [MMV006203] | 99
56 | CCN(CC)CCNc1ccnc2cc3ccccc3cc12 [MMV006303] | 102
57 | Cc1cc(Nc2cccc(F)c2)nc(NCc2ccccc2)n1 [MMV006319] | 104
58 | COc1cc(OC)c(N(C)C(=O)c2cc3c(s2)-c2ccccc2S(=O)(=O)C3)cc1Cl [MMV006427] | 99
59 | Cc1cc(NC(=O)C2c3ccccc3C(=O)N(CC(C)C)C2c2cccs2)no1 (centres unmarked) [MMV006429] | 103
60 | c1ccc2c(NCCc3c[nH]c4ccccc34)c3ccccc3nc2c1 [MMV006513] | 98
61 | CCN(CC)CCNc1ncnc2c1[nH]c1ccc(Br)cc12 [MMV006545] | 104
62 | Cc1cc(C)c2c(c1)OCN(Cc1ccccc1Cl)C2 [MMV006558] | 104
63 | Clc1ccc2[nH]c3c(NCCCN4CCOCC4)ncnc3c2c1 [MMV006587] | 101
64 | CCOC(=O)C1=CN(C)C=C(C(=O)OCC)C1c1cc(Br)c(OCC)c(OC)c1 [MMV006656] | 103
65 | Cc1cc(=O)oc2c1ccc1oc(C(=O)c3ccccc3)c(C)c12 [MMV006753] | 102
66 | CC(C)CCNCC(O)Cn1c2ccccc2c2ccccc21 (centres unmarked) [MMV006787] | 103
67 | c1ccc2cc3c(Nc4ccc(N5CCOCC5)cc4)ccnc3cc2c1 [MMV006861] | 103
68 | Cc1ccc2c(C)nc(Nc3nc(C)cc(-c4ccccc4)n3)nc2c1 [MMV007041] | 103
69 | CCOc1ccc(CN2CCN(CC(O)COc3ccc(OCC(O)CN4CCN(Cc5ccc(OCC)cc5)CC4)cc3)CC2)cc1 (centres unmarked) [MMV007092] | 103

same assay, conditions: read-out: Inhibition% @ 50 uM rep2

Row | SMILES | inhibition at 50 µM [%]
70 | Cc1ccc(NC(=O)Nc2cccc(Cl)c2)cc1F [MMV000911] | 105
71 | CC(C)c1ccc(CNCC(O)c2ccccc2)cc1 (centres unmarked) [MMV001049] | 102
72 | CC1CC(C)CN(C(=O)c2ccc(Cl)cc2Cl)C1 (centres unmarked) [MMV001344] | 98
73 | CCN(CC)CCNc1ccnc2cc(Cl)ccc12 [MMV006087] | 103
74 | c1ccc(CNc2nc(Nc3ccccc3)nc3ccccc23)cc1 [MMV006169] | 104
75 | CN1CCN(c2ccc(Nc3c4ccccc4nc4ccccc34)cc2)CC1 [MMV006172] | 106
76 | Cc1cc(NCCN2CCCCC2)c2ccc3ccccc3c2n1 [MMV006203] | 101
77 | CCN(CC)CCNc1ccnc2cc3ccccc3cc12 [MMV006303] | 103
78 | Cc1cc(Nc2cccc(F)c2)nc(NCc2ccccc2)n1 [MMV006319] | 106
79 | COc1cc(OC)c(N(C)C(=O)c2cc3c(s2)-c2ccccc2S(=O)(=O)C3)cc1Cl [MMV006427] | 102
80 | Cc1cc(NC(=O)C2c3ccccc3C(=O)N(CC(C)C)C2c2cccs2)no1 (centres unmarked) [MMV006429] | 104
81 | c1ccc2c(NCCc3c[nH]c4ccccc34)c3ccccc3nc2c1 [MMV006513] | 101
82 | CCN(CC)CCNc1ncnc2c1[nH]c1ccc(Br)cc12 [MMV006545] | 106
83 | Cc1cc(C)c2c(c1)OCN(Cc1ccccc1Cl)C2 [MMV006558] | 105
84 | Clc1ccc2[nH]c3c(NCCCN4CCOCC4)ncnc3c2c1 [MMV006587] | 100
85 | CCOC(=O)C1=CN(C)C=C(C(=O)OCC)C1c1cc(Br)c(OCC)c(OC)c1 [MMV006656] | 103
86 | Cc1cc(=O)oc2c1ccc1oc(C(=O)c3ccccc3)c(C)c12 [MMV006753] | 103
87 | CC(C)CCNCC(O)Cn1c2ccccc2c2ccccc21 (centres unmarked) [MMV006787] | 103
88 | c1ccc2cc3c(Nc4ccc(N5CCOCC5)cc4)ccnc3cc2c1 [MMV006861] | 105
89 | Cc1ccc2c(C)nc(Nc3nc(C)cc(-c4ccccc4)n3)nc2c1 [MMV007041] | 103
90 | CCOc1ccc(CN2CCN(CC(O)COc3ccc(OCC(O)CN4CCN(Cc5ccc(OCC)cc5)CC4)cc3)CC2)cc1 (centres unmarked) [MMV007092] | 104

same assay, conditions: read-out: PbLuc IC50, dose response, 1/3 dilutions, max conc. 10 or 50 uM, unit inferred

Row | SMILES | pIC50
91 | CN1CCN(c2ccc(Nc3c4ccccc4nc4ccccc34)cc2)CC1 [MMV006172] | 5.46
92 | CCN(CC)CCNc1ccnc2cc3ccccc3cc12 [MMV006303] | 4.68
93 | COc1cc(OC)c(N(C)C(=O)c2cc3c(s2)-c2ccccc2S(=O)(=O)C3)cc1Cl [MMV006427] | 4.96
94 | CCOC(=O)C1=CN(C)C=C(C(=O)OCC)C1c1cc(Br)c(OCC)c(OC)c1 [MMV006656] | 5.08
95 | CC(C)CCNCC(O)Cn1c2ccccc2c2ccccc21 (centres unmarked) [MMV006787] | 5.02
96 | CCOc1ccc(CN2CCN(CC(O)COc3ccc(OCC(O)CN4CCN(Cc5ccc(OCC)cc5)CC4)cc3)CC2)cc1 (centres unmarked) [MMV007092] | 4.91

same assay, conditions: read-out: PbLuc IC50, dose response, unit inferred

Row | SMILES | pIC50
97 | Cc1cc(NC(=O)C2c3ccccc3C(=O)N(CC(C)C)C2c2cccs2)no1 (centres unmarked) [MMV006429] | 4.67

same assay, conditions: read-out: PbLuc max inhibition (%) @ 50 uM

Row | SMILES | inhibition at 50 µM [%]
98 | CN1CCN(c2ccc(Nc3c4ccccc4nc4ccccc34)cc2)CC1 [MMV006172] | 99
99 | CCN(CC)CCNc1ccnc2cc3ccccc3cc12 [MMV006303] | 98
100 | COc1cc(OC)c(N(C)C(=O)c2cc3c(s2)-c2ccccc2S(=O)(=O)C3)cc1Cl [MMV006427] | 97
101 | Cc1cc(NC(=O)C2c3ccccc3C(=O)N(CC(C)C)C2c2cccs2)no1 (centres unmarked) [MMV006429] | 96
102 | CCOC(=O)C1=CN(C)C=C(C(=O)OCC)C1c1cc(Br)c(OCC)c(OC)c1 [MMV006656] | 99
103 | CC(C)CCNCC(O)Cn1c2ccccc2c2ccccc21 (centres unmarked) [MMV006787] | 99
104 | CCOc1ccc(CN2CCN(CC(O)COc3ccc(OCC(O)CN4CCN(Cc5ccc(OCC)cc5)CC4)cc3)CC2)cc1 (centres unmarked) [MMV007092] | 99
